Where “and” joins values, the source holds several entries; their conditions need not be identical. Identical values can stand only once. Numbers after ± are expanded uncertainties.
What was measured:
[1] = for mass density: Liquid; for Normal melting temperature: Crystal, visual observation
[2] = xn = mol fraction of the nth substance listed; conditions: 101 kPa, Liquid

c1cc[nH]c1 [pyrrole]
[1], Vibrating tube method
Conditions	mass density [kg/m3]
298.15 K, 100 kPa	965.54 ± 0.29
298.15 K, 101 kPa	965.54 ± 0.39
298.15 K, 500 kPa	965.71 ± 0.29
298.15 K, 1000 kPa	966 ± 0.29
298.15 K, 1500 kPa	966.3 ± 0.29
298.15 K, 2000 kPa	966.59 ± 0.3
298.15 K, 2500 kPa	966.9 ± 0.3
298.15 K, 3000 kPa	967.19 ± 0.3
298.15 K, 4000 kPa	967.77 ± 0.3
298.15 K, 5000 kPa	968.35 ± 0.3
308.15 K, 101 kPa	956.83 ± 0.4
318.15 K, 101 kPa	948.03 ± 0.4
328.15 K, 101 kPa	939.14 ± 0.41
338.15 K, 101 kPa	930.13 ± 0.42

Conditions	Normal melting temperature
[1]	-23.5 ± 0.3 °C and -23.4 ± 0.3 °C

c1ccccc1 [benzene]
[1], 101 kPa
Conditions	mass density [kg/m3]
298.15 K	873.63 ± 0.39
308.15 K	862.91 ± 0.4
318.15 K	852.12 ± 0.41
328.15 K	841.24 ± 0.43
338.15 K	830.26 ± 0.44

Conditions	Normal melting temperature [°C]
[1]	5.5 ± 0.3

c1cc[nH]c1 [pyrrole] + c1ccccc1
mass density [kg/m3], [2]
Conditions	298.15 K	308.15 K	318.15 K	328.15 K	338.15 K
x1 = 0.0447	878.11 ± 0.4	867.49 ± 0.41	856.79 ± 0.42	846 ± 0.44	835.1 ± 0.45
x1 = 0.1287	886.6 ± 0.39	876.17 ± 0.4	865.66 ± 0.42	855.06 ± 0.43	844.34 ± 0.44
x1 = 0.2144	894.89 ± 0.39	884.68 ± 0.4	874.36 ± 0.41	863.95 ± 0.42	853.41 ± 0.44
x1 = 0.3142	904.35 ± 0.39	894.36 ± 0.4	884.28 ± 0.41	874.1 ± 0.42	863.91 ± 0.43
x1 = 0.3916	911.83 ± 0.38	902.01 ± 0.39	892.11 ± 0.41	882.08 ± 0.42	871.95 ± 0.43
x1 = 0.503	922.04 ± 0.38	912.44 ± 0.39	902.77 ± 0.4	892.98 ± 0.41	883.08 ± 0.43
x1 = 0.5973	930.57 ± 0.38	921.15 ± 0.39	911.66 ± 0.4	902.07 ± 0.41	892.35 ± 0.42
x1 = 0.6693	936.98 ± 0.38	927.73 ± 0.39	918.38 ± 0.4	908.92 ± 0.41	899.34 ± 0.42
x1 = 0.7371	942.99 ± 0.39	933.85 ± 0.4	924.62 ± 0.4	915.29 ± 0.41	905.82 ± 0.42
x1 = 0.8207	950.33 ± 0.39	941.34 ± 0.4	932.26 ± 0.41	923.07 ± 0.42	913.74 ± 0.43
x1 = 0.8732	954.72 ± 0.39	945.81 ± 0.4	936.8 ± 0.41	927.7 ± 0.42	918.46 ± 0.43
x1 = 0.9214	958.96 ± 0.39	950.13 ± 0.4	941.21 ± 0.41	932.19 ± 0.42	923.04 ± 0.43
x1 = 0.979	963.65 ± 0.4	954.92 ± 0.4	946.08 ± 0.41	937.17 ± 0.42	928.12 ± 0.43
x1 = 1	965.54 ± 0.39	956.83 ± 0.4	948.03 ± 0.4	939.14 ± 0.41	930.13 ± 0.42

C1CCCCC1 [cyclohexane]
[1], 101 kPa
Conditions	mass density [kg/m3]
298.15 K	773.87 ± 0.51
308.15 K	764.38 ± 0.52
318.15 K	754.77 ± 0.54
328.15 K	745.04 ± 0.55
338.15 K	735.18 ± 0.57

Conditions	Normal melting temperature [°C]
[1]	7 ± 1.5

c1cc[nH]c1 [pyrrole] + C1CCCCC1
mass density [kg/m3], [2]
Conditions	298.15 K	308.15 K	318.15 K	328.15 K	338.15 K
x1 = 0.0749	786.03 ± 0.52	776.43 ± 0.54	766.72 ± 0.55	756.88 ± 0.56	746.91 ± 0.58
x1 = 0.1409	797.78 ± 0.51	788.17 ± 0.53	778.44 ± 0.54	768.58 ± 0.55	758.6 ± 0.57
x1 = 0.1864	805.48 ± 0.51	795.87 ± 0.52	786.14 ± 0.54	776.3 ± 0.55	766.32 ± 0.56
x1 = 0.2637	819.91 ± 0.5	810.32 ± 0.51	800.64 ± 0.52	790.86 ± 0.54	780.96 ± 0.55
x1 = 0.3549	837.14 ± 0.49	827.63 ± 0.5	818.03 ± 0.51	808.35 ± 0.52	798.62 ± 0.54
x1 = 0.4446	854.23 ± 0.48	844.82 ± 0.49	835.34 ± 0.5	825.81 ± 0.51	816.3 ± 0.52
x1 = 0.5058	866.13 ± 0.47	856.8 ± 0.48	847.4 ± 0.49	837.91 ± 0.5	828.38 ± 0.51
x1 = 0.6032	884.76 ± 0.46	875.58 ± 0.47	866.33 ± 0.48	856.97 ± 0.49	847.56 ± 0.5
x1 = 0.6712	898.56 ± 0.46	889.48 ± 0.47	880.32 ± 0.48	870.17 ± 0.49	861.68 ± 0.5
x1 = 0.7183	908.28 ± 0.46	899.28 ± 0.47	890.2 ± 0.47	881.03 ± 0.49	871.79 ± 0.49
x1 = 0.761	916.78 ± 0.45	907.83 ± 0.46	898.79 ± 0.47	889.65 ± 0.48	880.41 ± 0.49
x1 = 0.8376	932.14 ± 0.45	923.29 ± 0.46	914.35 ± 0.46	905.29 ± 0.47	896.1 ± 0.48
x1 = 0.8824	941.41 ± 0.45	932.59 ± 0.45	923.7 ± 0.46	914.69 ± 0.47	905.55 ± 0.48
x1 = 0.9424	953.79 ± 0.44	945.05 ± 0.45	936.21 ± 0.46	927.25 ± 0.47	918.18 ± 0.47
x1 = 1	965.54 ± 0.39	956.83 ± 0.4	948.03 ± 0.4	939.14 ± 0.41	930.13 ± 0.42

C1CCCCC1 [cyclohexane] + c1cc[nH]c1
[2], x2 = 0
Conditions	mass density [kg/m3]
298.15 K	773.87 ± 0.51
308.15 K	764.38 ± 0.52
318.15 K	754.77 ± 0.54
328.15 K	745.04 ± 0.55
338.15 K	735.18 ± 0.57

c1ccccc1 [benzene] + c1cc[nH]c1
[2], x2 = 0
Conditions	mass density [kg/m3]
298.15 K	873.63 ± 0.39
308.15 K	862.91 ± 0.4
318.15 K	852.12 ± 0.41
328.15 K	841.24 ± 0.43
338.15 K	830.26 ± 0.44
